Consider 1 molecule from PMC6399176, “Assembly of a heterodinuclear Mn/Fe cofactor is coupled to tyrosine–valine ether cross-link formation in the R2-like ligand-binding oxidase” (Journal of Biological Inorganic Chemistry, 2019).

The target of this test is T1, R2loxI (R2-like ligand-binding oxidase, R2lox) (Geobacillus kaustophilus, UniProt Q5KW80, A171F).
T1 construct: gene GK2771; full-length, N-terminal hexahistidine tag, pET-46 Ek/LIC, E. coli BL21(DE3), purified metal-free
The test is described as follows: X-ray crystallography. The settings on record: oxidized resting state, Mn/Fe-soaked crystal; ligand co-purified, further up in the tunnel, not at the metals; modelled as C8 acid from partial density, true identity and chain length uncertain.

T1 sequence (Q5KW80 entry or part of it A171F): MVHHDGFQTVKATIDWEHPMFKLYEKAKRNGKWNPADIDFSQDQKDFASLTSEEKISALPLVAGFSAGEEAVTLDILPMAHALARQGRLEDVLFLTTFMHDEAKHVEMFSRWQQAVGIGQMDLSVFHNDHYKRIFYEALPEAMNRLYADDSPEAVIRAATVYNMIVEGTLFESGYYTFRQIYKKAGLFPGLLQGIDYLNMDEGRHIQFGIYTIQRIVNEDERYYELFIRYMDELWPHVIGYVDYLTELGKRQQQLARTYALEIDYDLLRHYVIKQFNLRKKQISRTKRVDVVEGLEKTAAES

Take `CCCCCCCC(=O)O` [caprylic (C8) acid]: the X-ray crystallography entry is “could only reasonably be modeled (as caprylic (C8) acid) in the oxidized state”.
